Test system: ovariectomized mice
Test: Blastocyst implantation after embryo transfer in ovariectomized, steroid-primed mice (LIF as replacement for nidatory estrogen)
Assay type: in vivo
Conditions: for Nos. Implanted / Nos. Pregnant: E2 1 injection of 40 ng or LIF 3 injections of 5 μg 1 hour apart, analysis four days later
Procedure: Mice were ovariectomized and allowed to recover for 18 days before starting experimental manipulation. Priming of the uterus by steroid hormones was started by the injection of 100 ng of Estrogen on each of 3 consecutive days. On the 6th day the mice were given a single injection of Progesterone in the form of Depo-Provera. Three days later an average of 6 blastocysts, either directly isolated from females or from cultures started the previous day when the embryos were at the 8-cell stage were surgically transferred to the right uterine horn. After the mice had recovered from surgery they were either given 1 injection of 40 ng of estrogen or 3 injections, 1 hour apart, of 5 μg LIF. Four days later (equivalent to Day 7-8 of pregnancy) the mice were sacrificed for analysis, and the implantation sites recovered.

[1] = Blastocyst type at time of transfer: D4 cultured, E2 36 blastocysts (6 recipients), LIF 42 (7)
[2] = Blastocyst type at time of transfer: D4 direct, 36 blastocysts in 6 recipients

LIF: cytokine Leukemia Inhibitory Factor, recombinant, member of the IL-6 family of cytokines
Nos. Implanted [1]: 16
Nos. Pregnant [1]: 5
Nos. Implanted [2]: 30
Nos. Pregnant [2]: 6
Inducing embryo implantation in place of estrogen (result in words) (injection of LIF versus injection of estrogen, Table 1 protocol): can unequivocally replace the injection of estrogen for inducing embryo implantation

Source: US7504096B1, “Methods for in vitro fertilization” (The United States of America as represented by the …, priority 1999, dated 2009)
